Values after ≈ are worked out from the molar mass of the structure shown. Active and inactive are the calls of the source. The calls are words filed in the database; no cut-off is given here.
Legend:
Staphylococcus aureus = assay: Antibacterial activity against Staphylococcus aureus; assay type: functional
Saccharomyces cerevisiae = assay: Antifungal activity against Saccharomyces cerevisiae assessed as reduction in fungal growth at 80 ug by paper disk assay; assay type: functional, organism-based; conditions: dose 80.0 µg
HeLa [1] = assay: Cytotoxicity against human HeLa cells assessed as relative cell population at 50 uM by MTT assay relative to control; assay type: functional
HeLa [2] = assay: Cytotoxicity against human HeLa cells assessed as reduction in cell population to half by MTT assay; assay type: functional, cell-based
Escherichia coli = assay: Antibacterial activity against Escherichia coli; assay type: functional, organism-based
[3] = Cytotoxicity against human WI-38 cells assessed as reduction in cell population to half by MTT assay; assay type: toxicity, cell-based
Epicoccum nigrum [4] = assay: Antifungal activity against wild type Epicoccum nigrum assessed as reduction in fungal growth at 80 ug by paper disk assay; assay type: functional, organism-based; conditions: dose 80.0 µg
HeLa [5] = assay: Cytotoxicity against human HeLa cells assessed as reduction in cell population to midpoint between values of non-treated control and lowest population by MTT assay; assay type: functional, cell-based
[6] = Cytotoxicity against human WI-38 cells assessed as reduction in cell population to midpoint between values of non-treated control and lowest population by MTT assay; assay type: toxicity, cell-based
Cryptococcus neoformans = assay: Antifungal activity against Cryptococcus neoformans assessed as reduction in fungal growth at 80 ug by paper disk assay; assay type: functional, organism-based; conditions: dose 80.0 µg
[7] = Cytotoxicity against human WI-38 cells assessed as reduction in cell population by MTT assay relative to control; assay type: toxicity, cell-based
HeLa [8] = assay: Cytotoxicity against human HeLa cells assessed as relative cell population at 100 uM by MTT assay relative to control; assay type: functional
Epicoccum nigrum [9] = assay: Antifungal activity against Epicoccum nigrum deltaepcB assessed as reduction in fungal growth at 80 ug by paper disk assay; assay type: functional, organism-based; conditions: dose 80.0 µg
HeLa [10] = assay: Cytotoxicity against human HeLa cells assessed as inhibition in cell growth at 200 uM by MTT assay; assay type: functional, cell-based
HeLa [11] = assay: Cytotoxicity against human HeLa cells assessed as reduction in cell population by MTT assay relative to control; assay type: functional
[12] = Cytotoxicity against human WI-38 cells assessed as inhibition in cell growth at 100 uM by MTT assay relative to control; assay type: toxicity, cell-based
HeLa [13] = assay: Cytotoxicity against human HeLa cells assessed as inhibition in cell proliferation at 10 to 100 uM by MTT assay; assay type: functional, cell-based; conditions: dose 10-100 µM
WI-38 = assay: Cytotoxicity against human WI-38 cells assessed as inhibition in cell proliferation at 10 to 100 uM by MTT assay; assay type: toxicity, cell-based; conditions: wi-38, 100 µM, dose 10-100 µM

Row | SMILES | MIC (Staphylococcus aureus) [µg/mL] | Activity (Saccharomyces cerevisiae) | Activity (HeLa [1]) [%] | IC50 (HeLa [2]; read-out: IC50) [µM] | Activity (Escherichia coli) | IC50 [3] [µM] | Activity (Epicoccum nigrum [4]) | EC50 (HeLa [5]) [µM] | EC50 [6] [µM] | Activity (Cryptococcus neoformans) | Emax [7] [%] | Activity (HeLa [8]) [%] | Activity (Epicoccum nigrum [9]) | inhibition (HeLa [10]) | Emax (HeLa [11]) [%] | inhibition at 100 µM [12] [%] | IC50 (HeLa [2]) [µM] | inhibition (HeLa [13]) | Activity (WI-38)
1 | C[C@@H](CCCCCCCCC(=O)CCCCCCCCC[C@H](O)CO)/C(O)=C1/C(=O)N[C@@H](Cc2ccc(O)cc2)C1=O | 2.8 (≈ 4.76 µM) |  |  |  |  |  |  |  |  |  |  |  |  |  |  |  |  |  | 
2 | C[C@@H](CCCCCCCCCCCCCCO[C@@H]1O[C@H](CO)[C@@H](O)[C@H](O)[C@@H]1O)C(=O)C1=C(O)N(C)[C@@H](C)C1=O | 64 (≈ 115 µM) | Active | 88 | 76 | inactive | 38 | inactive | 70 | 34 | inactive | 4.6 | 14 | inactive | Active | 3.2 |  |  |  | 
3 | COc1cccc2c1C(=O)c1c(O)c3c(c(O)c1C2=O)C[C@@](O)(C(=O)CO)C[C@@H]3O[C@H]1C[C@H](N)[C@H](O)[C@H](C)O1 [DOXORUBICIN] |  |  |  |  |  |  |  | 4.3 |  |  |  |  |  |  | 15 | < 10 | 5.1 |  | 
4 | C[C@@H](CCCCCCCCCCCCCCO)C(=O)C1=C(O)N(C)[C@@H](C)C1=O | 1 (≈ 2.53 µM) | Active |  | 19 | inactive | 15 | inactive | 12 | 9.1 | inactive | 20 |  | inactive |  | 23 |  |  | Active | Toxic
5 | C[C@@H](CCCCCCCCC(=O)CCCCCCCCC[C@H](O)CO[C@@H]1O[C@H](CO)[C@@H](O)[C@H](O)[C@@H]1O)/C(O)=C1/C(=O)N[C@@H](Cc2ccc(O)cc2)C1=O | 7.2 (≈ 9.6 µM) |  |  |  |  |  |  |  |  |  |  |  |  |  |  |  |  |  | 
